Experimental data reported in the supplement of paper PMC11061612.

What was measured:
[1] = system: LNCaP-Clone-FGC (Prostate Carcinoma); experiment: combination Emax (second highest fraction inhibited in the dose matrix, 72 h); higher = more inhibition; extreme values may be limits of the assay
Method in brief: (§1)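 Bliss excess equals the observed combination effect minus the expected value EA + EB − EA·EB, where EA and EB are the effects of each agent alone. Combination Emax is the second-highest inhibition within the matrix. Inhibition was scaled from CellTiter-Glo 2.0 luminescence, with 0 set by vehicle wells and 1 by blank wells, after 72 hours of two-drug dosing of cells plated in 1536-well plates.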

AGS (Gastric Carcinoma) = experiment: as above
Method in brief: as §1

[2] = system: HuP-T4 (Pancreatic Carcinoma); experiment: as above
Method in brief: as §1

[3] = system: LB831-BLC (Bladder Carcinoma); experiment: as above
Method in brief: as §1

42-MG-BA (Glioblastoma) = experiment: as above
Method in brief: as §1

KELLY (Neuroblastoma) = experiment: as above
Method in brief: as §1

HOS (Osteosarcoma) [4] = experiment: as above
Method in brief: as §1

[5] = system: LU-135 (Small Cell Lung Carcinoma); experiment: as above
Method in brief: as §1

[6] = system: OVCA420 (Ovarian Carcinoma); experiment: as above
Method in brief: as §1

[7] = system: NCI-H2085 (Non-Small Cell Lung Carcinoma); experiment: as above
Method in brief: as §1

[8] = system: ME-1 (Acute Myeloid Leukemia); experiment: as above
Method in brief: as §1

[9] = system: HT-1376 (Bladder Carcinoma); experiment: as above
Method in brief: as §1

[10] = system: HO-1-N-1 (Oral Cavity Carcinoma); experiment: as above
Method in brief: as §1

[11] = system: KYSE-520 (Esophageal Squamous Cell Carcinoma); experiment: as above
Method in brief: as §1

[12] = system: RO82-W-1 (Thyroid Gland Carcinoma); experiment: Bliss excess, mean over the matrix (fraction); higher = more synergy
Method in brief: as §1

[13] = system: CCRF-CEM (T-Lymphoblastic Leukemia); experiment: as above
Method in brief: as §1

HOS (Osteosarcoma) [14] = experiment: as above
Method in brief: as §1

[15] = system: RC-K8 (B-Cell Non-Hodgkin's Lymphoma); experiment: as above
Method in brief: as §1

[16] = system: NCI-H2085 (Non-Small Cell Lung Carcinoma); experiment: as above
Method in brief: as §1

NOS-1 (Osteosarcoma) = experiment: as above
Method in brief: as §1

| SMILES | combination Emax [1] | combination Emax (AGS (Gastric Carcinoma)) | combination Emax [2] | combination Emax [3] | combination Emax (42-MG-BA (Glioblastoma)) | combination Emax (KELLY (Neuroblastoma)) | combination Emax (HOS (Osteosarcoma) [4]) | combination Emax [5] | combination Emax [6] | combination Emax [7] | combination Emax [8] | combination Emax [9] | combination Emax [10] | combination Emax [11] | Bliss excess [12] | Bliss excess [13] | Bliss excess (HOS (Osteosarcoma) [14]) | Bliss excess [15] | Bliss excess [16] | Bliss excess (NOS-1 (Osteosarcoma)) |
| --- | --- | --- | --- | --- | --- | --- | --- | --- | --- | --- | --- | --- | --- | --- | --- | --- | --- | --- | --- | --- |
| CN(CCO)CC[C@H](CSc1ccccc1)Nc1ccc(S(=O)(=O)NC(=O)c2ccc(N3CCC([C@@H](O)c4ccccc4-c4ccc(Cl)cc4)CC3)cc2)cc1S(=O)(=O)C(F)(F)F [AZD4320] + C[C@@H](Nc1cc(F)cc(F)c1)c1cc(C(=O)N(C)C)cc2c(=O)cc(N3CCOCC3)oc12 [AZD8186] (first compound max 1 µM, 7x7, partner max 3 µM) | 0.912 | 0.974 | 0.515 | 0.532 | 0.757 | 0.7 | 0.37 | 1 | 0.261 | 0.584 | 1 | 0.551 | 0.735 | 0.34 | -0.0581 | 0.0013 | 0.0607 | -0.015 | -0.0231 | -0.0096 |
| CN(CCO)CC[C@H](CSc1ccccc1)Nc1ccc(S(=O)(=O)NC(=O)c2ccc(N3CCC([C@@H](O)c4ccccc4-c4ccc(Cl)cc4)CC3)cc2)cc1S(=O)(=O)C(F)(F)F [AZD4320] + C=CCn1c(=O)c2cnc(Nc3ccc(N4CCN(C)CC4)cc3)nc2n1-c1cccc(C(C)(C)O)n1 [AZD1775] (first compound max 1 µM, partner max 1 µM) | 0.773 | 0.999 | 0.395 | 0.634 | 0.293 | 1 | 0.379 | 1 | 0.37 | 0.585 | 1 | 0.718 | 0.549 | 0.552 | -0.0364 | 0.0065 | 0.0337 | 0.0829 | -0.0212 | 0.0894 |
| COc1nnc2ccc(N3CCC(c4ccc(OCCN5CCN(C)C(=O)[C@H]5C)cc4)CC3)nn12 [AZD5153] + Cn1cnc2c(F)c(Nc3ccc(Br)cc3Cl)c(C(=O)NOCCO)cc21 [Selumetinib] (first compound max 1 µM, 7x7, partner max 10 µM) | 0.728 | 0.999 | 0.814 | 0.494 | 0.705 | 0.645 | 0.544 | 0.948 | 0.819 | 0.563 | 0.583 | 0.26 | 0.773 | 0.691 | 0.038 | -0.0015 | 0.0429 | -0.048 | 0.027 | 0.066 |
| CC1(C)CCC(CN2CCN(c3ccc(C(=O)NS(=O)(=O)c4ccc(NCC5CCOCC5)c([N+](=O)[O-])c4)c(Oc4cnc5[nH]ccc5c4)c3)CC2)=C(c2ccc(Cl)cc2)C1 [Venetoclax] + Cc1cc2ncnn2cc1Nc1ncc2c(n1)n(C1CCOCC1)c(=O)n2C [AZD7648] (first compound max 1 µM, 7x7, partner max 10 µM) | 0.423 | 0.199 | 0.202 | 0.241 | 0.43 | 0.989 | 0.204 | 0.386 | 0.223 | 0.143 | 1 | 0.193 | 0.331 | 0.34 | -0.0346 | 0.044 | -0.0019 | 0.0156 | -0.0535 | -0.0504 |
| CC(=O)Nc1cccc(-n2c(=O)n(C3CC3)c(=O)c3c(Nc4ccc(I)cc4F)n(C)c(=O)c(C)c32)c1 [Trametinib] + Cc1nc(-c2cn3c(n2)-c2ccc(-c4cnn(C(C)(C)C(N)=O)c4)cc2OCC3)n(C(C)C)n1 [Taselisib] (first compound max 1 µM, 7x7, partner max 10 µM) | 0.813 | 1 | 0.832 | 0.77 | 0.971 | 0.47 | 0.43 | 0.514 | 0.917 | 0.52 | 0.381 | 0.339 | 0.991 | 0.846 | 0.0426 | 0.0951 | 0.0604 | 0.0907 | 0.0062 | 0.191 |
| Cn1cnc2c(F)c(Nc3ccc(Br)cc3Cl)c(C(=O)NOCCO)cc21 [Selumetinib] + CCN(CCO)CCCOc1ccc2c(Nc3cc(CC(=O)Nc4cccc(F)c4)[nH]n3)ncnc2c1 [AZD2811] (first compound max 10 µM, 7x7, partner max 1 µM) | 0.284 | 0.954 | 0.421 | 0.226 | 0.447 | 0.645 | 0.198 | 0.933 | 0.493 | 0.492 | 0.413 | 0.198 | 0.737 | 0.428 | 0.0016 | 0.0007 | -0.0192 | 0.0763 | -0.0589 | -0.0092 |
